Measured values as given in patent US8309558B2, “Compounds for the treatment of hepatitis C” (Bristol-Myers Squibb Company, priority 2008, dated 2012).

Legend:
HCV replicon cells = experiment: HCV replicon FRET / luciferase assay (96-well plates); assay type: cell-based; conditions: Hepatitis C virus, Table 1a; HCV replicon; read-out: EC50
Procedure, shortened: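 Readout was NS3 protease cleavage of an EDANS/DABCYL FRET peptide (20 μM final) in lysed HCV replicon cells, or Renilla luciferase in reporter replicons. Background came from wells with the highest level of control protease inhibitor. EC50 marked the concentration giving 50% signal reduction.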

[1] = biological target: T1, HCV NS5B RdRp genotype 1b (Hepatitis C virus genotype 1b, UniProt Q9WMX2); experiment: Standard HCV NS5B RdRp enzyme assay; assay type: biochemical; conditions: Table 1a; HCV NS5B RdRp genotype 1b; read-out: IC50
T1 construct: The protein was expressed with an 18 amino acid C-terminal truncation to enhance the solubility; made in house; host or cells: E. coli BL21(DE3), pET21a vector
Procedure, shortened: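 Radiometric SPA measuring 3H-UMP incorporation on polyA/biotin-oligo-dT12 (6 nM/180 nM), 0.29 μM total UTP. Enzyme: NS5B 1b lacking last 18 residues, 28 nM final, 30° C for 60 min in 20 mM Hepes pH 7.5, 2.5 mM MgCl2, 2% DMSO. IC50 from seven-point curves.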

T1 sequence (Q9WMX2 2420-2992): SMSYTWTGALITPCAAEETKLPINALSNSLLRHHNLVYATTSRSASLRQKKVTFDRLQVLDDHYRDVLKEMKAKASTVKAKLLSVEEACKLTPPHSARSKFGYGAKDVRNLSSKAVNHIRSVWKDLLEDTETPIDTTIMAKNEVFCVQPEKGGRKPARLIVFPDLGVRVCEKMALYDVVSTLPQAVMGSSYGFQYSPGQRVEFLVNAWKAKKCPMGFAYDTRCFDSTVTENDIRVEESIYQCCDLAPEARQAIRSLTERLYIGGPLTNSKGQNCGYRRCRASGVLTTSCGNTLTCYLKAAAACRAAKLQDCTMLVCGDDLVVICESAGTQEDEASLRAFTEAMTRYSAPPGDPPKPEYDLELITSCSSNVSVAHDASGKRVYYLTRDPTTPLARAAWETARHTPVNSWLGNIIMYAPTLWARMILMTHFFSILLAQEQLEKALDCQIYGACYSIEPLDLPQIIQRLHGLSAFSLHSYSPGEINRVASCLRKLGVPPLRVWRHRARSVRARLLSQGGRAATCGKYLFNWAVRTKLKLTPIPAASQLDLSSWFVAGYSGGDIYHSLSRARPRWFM

SMILES	EC50 (HCV replicon cells)	IC50 [1]
CNC(=O)c1c(-c2ccc(F)cc2)oc2ccc(-c3cccc(C(=O)NC4CCCC4)c3)cc12	< 0.25 µM	< 0.25 µM
CNC(=O)c1c(-c2ccc(F)cc2)oc2ccc(-c3cccc(C(=O)NC4CCCCC4)c3)cc12	< 0.25 µM	< 0.25 µM
CNC(=O)c1c(-c2ccc(F)cc2)oc2ccc(-c3cccc(C(=O)Nc4ccccc4OC)c3)cc12	< 0.25 µM	0.25 to 1 µM
CNC(=O)c1c(-c2ccc(F)cc2)oc2ccc(-c3cccc(C(=O)NC4CCCCCC4)c3)cc12	< 0.25 µM	< 0.25 µM
CNC(=O)c1c(-c2ccc(F)cc2)oc2ccc(-c3cccc(C(=O)NC(C)c4ccccc4)c3)cc12 (stereo not drawn)	< 0.25 µM	< 0.25 µM
CNC(=O)c1c(-c2ccc(F)cc2)oc2ccc(-c3cccc(C(=O)NC4CCC(C)CC4)c3)cc12 (stereo not drawn)	< 0.25 µM	< 0.25 µM
CNC(=O)c1c(-c2ccc(F)cc2)oc2ccc(-c3cccc(C(=O)NC4CCC4)c3)cc12	< 0.25 µM	< 0.25 µM
CNC(=O)c1c(-c2ccc(F)cc2)oc2ccc(-c3cccc(C(=O)Nc4cc(C)ccn4)c3)cc12	< 0.25 µM	0.25 to 1 µM
CNC(=O)c1c(-c2ccc(F)cc2)oc2ccc(-c3cccc(C(=O)Nc4ccccc4O)c3)cc12	< 0.25 µM	< 0.25 µM
CNC(=O)Nc1c(-c2ccc(F)cc2)oc2ccc(OC(C)C)cc12	> 10 µM	> 10 µM
CNC(=O)c1c(-c2ccc(F)cc2)oc2ccc(-c3ccc(Cl)cc3C(=O)O)cc12	> 10 µM	1 to 10 µM
CNC(=O)c1c(-c2ccc(F)cc2)oc2ccc(-c3ccc(C(=O)OC(C)(C)C)cc3)cc12	> 10 µM	> 10 µM
CNC(=O)c1c(-c2ccc(F)cc2)oc2ccc(-c3ccc(C(=O)O)c(F)c3)cc12	> 10 µM	1 to 10 µM
CNC(=O)c1c(-c2ccc(F)cc2)oc2ccc(-c3ccccc3/C=C/C(=O)O)cc12	> 10 µM	1 to 10 µM
CNC(=O)c1c(-c2ccc(F)cc2)oc2ccc(-c3cccc(C(=O)N4CCN(C)CC4)c3)cc12	> 10 µM	> 10 µM
CNC(=O)c1c(-c2ccc(F)cc2)oc2ccc(-c3cccc(CO)c3)cc12	> 10 µM	> 10 µM
CNC(=O)c1c(-c2ccc(F)cc2)oc2ccc(-c3cc(Br)cnc3F)cc12	> 10 µM	> 10 µM
CNC(=O)c1c(-c2ccc(F)cc2)oc2ccc(-c3cccc(CCC(=O)O)c3)cc12	> 10 µM	1 to 10 µM
CNC(=O)c1c(-c2ccc(F)cc2)oc2ccc(-c3ccc(F)cc3Cl)cc12	> 10 µM	> 10 µM
CCN(CC)C(=O)c1ccc(-c2ccc3oc(-c4ccc(F)cc4)c(C(=O)NC)c3c2)cc1	> 10 µM	1 to 10 µM
CNC(=O)c1c(-c2ccc(F)cc2)oc2ccc(-c3ccc(NC(=O)CCC(=O)O)cc3)cc12	> 10 µM	1 to 10 µM
CNC(=O)c1c(-c2ccc(F)cc2)oc2ccc(-c3ccc(F)cc3CN)cc12	> 10 µM	> 10 µM

SMILES	EC50 (HCV replicon cells)	IC50 [1]
CNC(=O)c1c(-c2ccc(F)cc2)oc2ccc(-c3sccc3C(=O)O)cc12	> 10 µM	> 10 µM
CNC(=O)c1c(-c2ccc(F)cc2)oc2ccc(-c3ccc(F)c(C(=O)O)c3)cc12	> 10 µM	1 to 10 µM
CNC(=O)c1c(-c2ccc(F)cc2)oc2ccc(-c3cc(C(=O)O)cc([N+](=O)[O-])c3)cc12	> 10 µM	0.25 to 1 µM
CNC(=O)c1c(-c2ccc(F)cc2)oc2ccc(-c3ccc(C(=O)O)c(Cl)c3)cc12	> 10 µM	1 to 10 µM
CNC(=O)c1c(-c2ccc(F)cc2)oc2ccc(-c3cccc(C(=O)NCC(N)=O)c3)cc12	> 10 µM	> 10 µM
CNC(=O)c1c(-c2ccc(F)cc2)oc2ccc(-c3cccc(C(=O)N4CCN(CCOC)CC4)c3)cc12	> 10 µM	> 10 µM
CNC(=O)c1c(-c2ccc(F)cc2)oc2ccc(-c3cccc(C(=O)NCCc4ccccc4)c3)cc12	> 10 µM	> 10 µM
CNC(=O)c1c(-c2ccc(F)cc2)oc2ccc(-c3ccc(C(=O)NCCC(N)=O)cc3)cc12	> 10 µM	> 10 µM
CNC(=O)c1c(-c2ccc(F)cc2)oc2ccc(-c3ccc(C(=O)N(C)CCC#N)cc3)cc12	> 10 µM	1 to 10 µM
CNC(=O)c1c(-c2ccc(F)cc2)oc2ccc(-c3ccc(C(=O)N4CCC[C@H]4CO)cc3)cc12	> 10 µM	> 10 µM
CNC(=O)c1c(-c2ccc(F)cc2)oc2ccc(-c3ccc(C(=O)NCC(N)=O)cc3)cc12	> 10 µM	> 10 µM
CNC(=O)c1c(-c2ccc(F)cc2)oc2ccc(-c3ccc(C(=O)N(C)CCO)cc3)cc12	> 10 µM	1 to 10 µM
CNC(=O)c1c(-c2ccc(F)cc2)oc2ccc(-c3ccc(C(=O)N(C)CC(=O)N(C)C)cc3)cc12	> 10 µM	> 10 µM
CNC(=O)c1c(-c2ccc(F)cc2)oc2ccc(-c3ccc(C(=O)NCCc4ccccc4Cl)cc3)cc12	> 10 µM	> 10 µM
CNC(=O)c1c(-c2ccc(F)cc2)oc2ccc(-c3ccc(C(=O)NCCNC(C)=O)cc3)cc12	> 10 µM	> 10 µM
CNC(=O)c1c(-c2ccc(F)cc2)oc2ccc(-c3ccc(C(=O)NCCc4ccc(OC)cc4)cc3)cc12	> 10 µM	> 10 µM
CNC(=O)c1c(-c2ccc(F)cc2)oc2ccc(-c3ccc(C(=O)NCCOC)cc3)cc12	> 10 µM	> 10 µM
CNC(=O)c1c(-c2ccc(F)cc2)oc2ccc(-c3cc(C(=O)O)ccc3Cl)cc12	> 10 µM	1 to 10 µM
CNC(=O)c1c(-c2ccc(F)cc2)oc2ccc(-c3ccc(Cl)c(C(=O)O)c3)cc12	> 10 µM	1 to 10 µM
CNC(=O)c1c(-c2ccc(F)cc2)oc2ccc(-c3cccc(C(=O)NC(CO)CO)c3)cc12	> 10 µM	1 to 10 µM
CNC(=O)c1c(-c2ccc(F)cc2)oc2ccc(-c3cccc(C(=O)Nc4cccc(C(=O)O)c4O)c3)cc12	> 10 µM	0.25 to 1 µM
CNC(=O)c1c(-c2ccc(F)cc2)oc2ccc(-c3cccc(C(=O)Nc4c(O)ncnc4O)c3)cc12	> 10 µM	0.25 to 1 µM

SMILES	EC50 (HCV replicon cells)	IC50 [1]
CNC(=O)c1c(-c2ccc(F)cc2)oc2ccc(-c3cccc(C(=O)N[C@@H](CO)C(N)=O)c3)cc12	> 10 µM	1 to 10 µM
CNC(=O)c1c(-c2ccc(F)cc2)oc2ccc(-c3cccc(C(=O)N(C)c4ccncc4)c3)cc12	> 10 µM	1 to 10 µM
CNC(=O)c1c(-c2ccc(F)cc2)oc2ccc(-c3cccc(C(=O)NC(C)CC(=O)O)c3)cc12 (stereo not drawn)	> 10 µM	0.25 to 1 µM
CNC(=O)c1c(-c2ccc(F)cc2)oc2ccc(-c3cccc(C(=O)Nc4cccc(CC(=O)O)c4)c3)cc12	> 10 µM	< 0.25 µM
CNC(=O)c1c(-c2ccc(F)cc2)oc2ccc(-c3cccc(C(=O)Nc4n[nH]cc4C(N)=O)c3)cc12	> 10 µM	1 to 10 µM
CCOC(=O)[C@@H]1CCCN1C(=O)c1cccc(-c2ccc3oc(-c4ccc(F)cc4)c(C(=O)NC)c3c2)c1	> 10 µM	1 to 10 µM
CNC(=O)c1c(-c2ccc(F)cc2)oc2ccc(-c3cccc(C(=O)Nn4c(C)nnc4C)c3)cc12	> 10 µM	0.25 to 1 µM
CNC(=O)c1c(-c2ccc(F)cc2)oc2ccc(-c3cccc(C(=O)Nc4cncc(C(=O)O)c4)c3)cc12	> 10 µM	0.25 to 1 µM
C=CCOC(=O)[C@H](C)NC(=O)c1cccc(-c2ccc3oc(-c4ccc(F)cc4)c(C(=O)NC)c3c2)c1	> 10 µM	< 0.25 µM
CNC(=O)c1c(-c2ccc(F)cc2)oc2cc([N+](=O)[O-])c(-c3cccc(C(=O)O)c3)cc12	> 10 µM	1 to 10 µM
CNC(=O)c1c(-c2ccc(F)cc2)oc2ccc(-c3cccc(C(=O)NC4(C(=O)NS(=O)(=O)C5CC5)CC4)c3)cc12	> 10 µM	< 0.25 µM
C=C[C@@H]1C[C@]1(NC(=O)c1cccc(-c2ccc3oc(-c4ccc(F)cc4)c(C(=O)NC)c3c2)c1)C(=O)NS(=O)(=O)C1CC1	> 10 µM	0.25 to 1 µM
CNC(=O)c1c(-c2ccc(F)cc2)oc2ccc(-c3cccc(C(=O)NS(C)(=O)=O)c3)cc12	> 10 µM	0.25 to 1 µM
CNC(=O)c1c(-c2ccc(F)cc2)oc2ccc(-c3cccc(C(=O)NC(C)(C)C(=O)O)c3)cc12	> 10 µM	0.25 to 1 µM
CN1CN(C)c2c(-c3cccc(C(=O)NC(C)(C)c4ccccc4)c3)ccc3oc(-c4ccc(F)cc4)c(c23)C1=O	> 10 µM	> 10 µM
CNC(=O)c1c(-c2ccc(F)cc2)oc2ccc(-c3cccc(S(=O)(=O)NC(C)(C)C)c3)cc12	> 10 µM	> 4 µM
CNC(=O)c1c(-c2ccc(F)cc2)oc2ccc(-c3cccc(S(=O)(=O)NC(C)C)c3)cc12	> 10 µM	> 10 µM
CNC(=O)c1c(-c2ccc(F)cc2)oc2ccc(-c3cccc(S(=O)(=O)NC4CC4)c3)cc12	> 10 µM	> 10 µM
CNC(=O)c1c(-c2ccc(F)cc2)oc2ccc(-c3cccc(S(=O)(=O)N4CCOCC4)c3)cc12	> 10 µM	> 10 µM
CNC(=O)c1c(-c2ccc(F)cc2)oc2ccc(-c3cccc(S(=O)(=O)NCc4ccccc4)c3)cc12	> 10 µM	> 10 µM
CNC(=O)c1c(-c2ccc(F)cc2)oc2ccc(-c3cccc(S(=O)(=O)NCCO)c3)cc12	> 10 µM	1 to 10 µM
CNC(=O)c1c(-c2ccc(F)cc2)oc2ccc(-c3cccc(C(=O)N4Cc5ccccc5C4)c3)cc12	> 10 µM	> 0.4 µM
